This is an account of results in PubChem BioAssay (NCI).

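Cultured in 96-well plates, cells were exposed to test compound for 48 hours across five concentrations. GI50 is the concentration that inhibits growth by half. TGI: total growth inhibition.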 Some results are limits rather than exact numbers.

Test systems include A498 renal; BT-549 breast; DU-145 prostate; KM12 colon; M14 melanoma; OVCAR-3 ovarian; OVCAR-8 ovarian; RPMI-8226 leukemia; SF-295 CNS; SNB-75 CNS.
What all share (assay): NCI tumour cell line growth inhibition, 48 h

With `O=[N+]([O-])C(/C=C(\Cl)[N+](=O)[O-])=C(Nc1ccccc1)Nc1ccccc1`, the TGI in the test on A498 renal was determined as 31.7 µM; in the test with BT-549 breast it was 20.7 µM; in the test with DU-145 prostate, 31.7 µM; with KM12 colon, 24.3 µM; in the test on M14 melanoma it was 22.9 µM; with OVCAR-3 ovarian, 17.3 µM. The TGI with OVCAR-8 ovarian was found to be 21.6 µM; in the test with RPMI-8226 leukemia, 6.35 µM; in the test with SF-295 CNS, 31.6 µM; in the test on SNB-75 CNS, 14.1 µM.

For the compound `CC(C)NC(=O)OCCN=C1c2ccccc2C(Br)C(Br)c2ccccc21` (configuration not stated), the TGI in the test on A498 renal was found to be 6.58 µM; in the test on BT-549 breast it was 29.3 µM; in the test with DU-145 prostate, 30 µM; in the test with KM12 colon, 45.8 µM; in the test with M14 melanoma, 16.2 µM; in the test with OVCAR-3 ovarian it was 35.6 µM. Moreover, the TGI with OVCAR-8 ovarian worked out at 24.8 µM; in the test on RPMI-8226 leukemia it was 23.1 µM; with SF-295 CNS, 42 µM; in the test with SNB-75 CNS it was 39.8 µM.

As for `C=C(C)C1CCC2(C)C1CCC1(C)C2CCC2C3(C)C4OC(OC4=O)C(C)(C)C3CCC21C` (configuration not stated), the TGI with A498 renal, in the test on BT-549 breast, in the test on DU-145 prostate, in the test with KM12 colon, in the test with M14 melanoma and with OVCAR-3 ovarian was over 100 µM each time. For the same compound, the TGI with OVCAR-8 ovarian, in the test on RPMI-8226 leukemia, in the test with SF-295 CNS and in the test on SNB-75 CNS was over 100 µM in each case.

For the compound `COc1cc2c(cc1OC)C(C1CC1)ON(C)CC2` (configuration not stated), the TGI with A498 renal, in the test with BT-549 breast, with DU-145 prostate, in the test on KM12 colon, in the test on M14 melanoma and in the test on OVCAR-3 ovarian was over 100 µM each time. Also, the TGI in the test on OVCAR-8 ovarian, in the test on RPMI-8226 leukemia, in the test on SF-295 CNS and in the test with SNB-75 CNS was over 100 µM throughout.

Take `CCCCCCCCCCCCCCCCOC[C@H](COC(c1ccccc1)(c1ccccc1)c1ccccc1)O[P+](=S)OC` (some centres not stated): the TGI in the test with A498 renal, with BT-549 breast, in the test with DU-145 prostate, in the test on KM12 colon, in the test on M14 melanoma and with OVCAR-3 ovarian was over 100 µM each time. For the same compound, the TGI with OVCAR-8 ovarian, in the test with RPMI-8226 leukemia, with SF-295 CNS and in the test on SNB-75 CNS was over 100 µM each time.

For `Fc1cccc(C2ON=C(c3ccccc3)N2C23CC4CC(CC(C4)C2)C3)c1` (configuration not stated), the TGI in the test on A498 renal, in the test on BT-549 breast, in the test with DU-145 prostate, with KM12 colon, with M14 melanoma and with OVCAR-3 ovarian was over 10 µM each time. The TGI with OVCAR-8 ovarian, with RPMI-8226 leukemia, in the test on SF-295 CNS and in the test on SNB-75 CNS was over 10 µM in each case.

Turning to `COc1cc2ccc(C(C)NCC#N)cc2cc1OC` (configuration not stated), the TGI with A498 renal, in the test on BT-549 breast, in the test with DU-145 prostate, in the test with KM12 colon, in the test on M14 melanoma and in the test on OVCAR-3 ovarian was over 100 µM throughout. In addition, the TGI with OVCAR-8 ovarian, in the test with RPMI-8226 leukemia, with SF-295 CNS and in the test on SNB-75 CNS was over 100 µM in each case.

Regarding `COC1CCC(OS(C)(=O)=O)C(C)O1` (configuration not stated), the TGI in the test with A498 renal, in the test on BT-549 breast, in the test on DU-145 prostate, with KM12 colon, in the test on M14 melanoma and in the test with OVCAR-3 ovarian was over 10 µM in each case. The TGI in the test with OVCAR-8 ovarian, in the test with RPMI-8226 leukemia, in the test on SF-295 CNS and in the test on SNB-75 CNS was over 10 µM in each case.

As for `C=C(CCC(=O)N(CCc1c[nH]c2ccccc12)C(=O)c1ccccc1CSCC)C(=O)OC`, the TGI in the test on A498 renal, in the test with BT-549 breast, in the test on DU-145 prostate, in the test with KM12 colon, with M14 melanoma and in the test with OVCAR-3 ovarian was over 100 µM throughout. In addition, the TGI in the test with OVCAR-8 ovarian, in the test with RPMI-8226 leukemia, with SF-295 CNS and with SNB-75 CNS was over 100 µM each time.

Consider `CCOC(=O)NC(Nc1ccc(C(=O)O)cc1)(C(F)(F)F)C(F)(F)F`, for which the TGI with A498 renal, with BT-549 breast, in the test with DU-145 prostate, in the test with KM12 colon, with M14 melanoma and in the test with OVCAR-3 ovarian was over 100 µM throughout. Besides, the TGI in the test with OVCAR-8 ovarian, with RPMI-8226 leukemia, with SF-295 CNS and in the test on SNB-75 CNS was over 100 µM throughout.

For the compound `O=C(O)C1C2OC(C(Br)C2Br)C1C(=O)O` (configuration not stated), the TGI in the test on A498 renal, with BT-549 breast, with DU-145 prostate, in the test on KM12 colon, with M14 melanoma and in the test on OVCAR-3 ovarian was over 100 µM in each case. In addition, the TGI with OVCAR-8 ovarian, in the test on RPMI-8226 leukemia, in the test with SF-295 CNS and in the test with SNB-75 CNS was over 100 µM in each case.

Turning to `Clc1ccc(C2=CC(c3ccccc3)N3C(=N[C@H]4CCCC[C@@H]43)N2)cc1` (some centres not stated), the TGI in the test with A498 renal amounted to 22.2 µM; in the test with BT-549 breast, 21.3 µM; in the test with DU-145 prostate it was 20.7 µM; in the test on KM12 colon, 8.79 µM; with M14 melanoma, 10.5 µM; in the test on OVCAR-3 ovarian, 19.3 µM. Moreover, the TGI in the test on OVCAR-8 ovarian stood at 11.4 µM; in the test on RPMI-8226 leukemia it was 7.02 µM; with SF-295 CNS it was 20.3 µM; in the test on SNB-75 CNS, 13.6 µM.

With `COc1cc(C2C3=C(NC(=O)C2C#N)c2ccc4ccccc4c2OCC3)cc(OC)c1OC` (configuration not stated), the TGI in the test with A498 renal is 44 µM; with BT-549 breast, 42.9 µM; in the test on DU-145 prostate, over 100 µM; in the test with KM12 colon, over 100 µM; in the test with M14 melanoma it was over 100 µM; in the test on OVCAR-3 ovarian it was over 100 µM. The TGI with OVCAR-8 ovarian is over 100 µM; with RPMI-8226 leukemia, over 100 µM; with SF-295 CNS, over 100 µM; in the test with SNB-75 CNS, 34.5 µM.

As to `C[N+](C)([O-])C12CC3CC(CC(C3)C1)C2`, the TGI with A498 renal is 67.7 µM; with BT-549 breast, over 100 µM; in the test with DU-145 prostate, over 100 µM; in the test on KM12 colon it was over 100 µM; with M14 melanoma, over 100 µM; in the test on OVCAR-3 ovarian, 58 µM. Also, the TGI was over 100 µM in the test with OVCAR-8 ovarian, 93.6 µM in the test on RPMI-8226 leukemia, over 100 µM in the test with SF-295 CNS and over 100 µM in the test on SNB-75 CNS.

`CC[P+](c1ccccc1)(N(C)C)N(C)C`: the TGI with A498 renal, in the test with BT-549 breast, in the test on DU-145 prostate, in the test with KM12 colon, in the test with M14 melanoma and with OVCAR-3 ovarian was over 100 µM throughout. Besides, the TGI with OVCAR-8 ovarian, in the test on RPMI-8226 leukemia, in the test on SF-295 CNS and in the test with SNB-75 CNS was over 100 µM throughout.

As for `CC(=O)CCN1CC2CN=NC2(C#N)C1` (configuration not stated), the TGI with A498 renal, with BT-549 breast, with DU-145 prostate, with KM12 colon, with M14 melanoma and in the test with OVCAR-3 ovarian was over 100 µM in each case. For the same compound, the TGI in the test with OVCAR-8 ovarian, in the test on RPMI-8226 leukemia, in the test on SF-295 CNS and with SNB-75 CNS was over 100 µM throughout. Moreover, the GI50 with M14 melanoma and in the test with RPMI-8226 leukemia was over 100 µM in each case.
